These results are taken from patent publication US20110046381A1, “NOVEL 4-{3-[4-(3-{4-[AMINO (BUTOXYCARBONYLIMINO) METHYL] PHENOXY} PROPYL)-1-PIPERIDINYL] PROPOXY]-N'-(BUTOXYCARBONYL) BENZAMIDINE CRYSTALS” (Toyama Chemical Co., Ltd., priority 2007, published 2011).

Series [1] in a line: Tapped density (Test Example 1). Format: physicochemical. The following applies: sieved 18 mesh, tapped 180 times, W/V1. The procedure:
The test materials passed through a sieve (18 mesh) were filled into a measuring cylinder and the weight W(g) of the filled test materials was measured. Next, the measuring cylinder containing the test materials was mechanically tapped 180 times by a powder characteristic measuring device (a powder tester PT-E, Hosokawa Micron Corporation). After tapping, the volume V1 (mL) of the tapped test materials was measured. By the following formula, the tapped density (g/mL) was calculated. Tapped density (g/mL)=W/V1

Series [2] in a line: Surface potential after corona discharge (Test Example 2). Format: physicochemical. The following applies: 25° C., 50% RH; corona discharge −4 kV for 2 minutes. On the procedure:
The following test was conducted in a thermo-hygrostat (25° C., 50% RH). The test materials were set in a sample plate (SUS304, the surface was ground by a buff400, the volume: about 6 mL, the depth: 3 mm, cylindrical, the upper aspect was opened), and was charged by corona discharge (the corona voltage: −4 kV) from an impressed voltage device for 2 minutes (the distance between the impressed voltage device and the sample plate: 30 mm). After charging, the surface potential of the test materials was measured (the distance between the sensor and the sample: 5 mm). Thermo-hygrostat: KCL-2000, EYELA CORPORATION Surface potential measurement device: SK-200, KEYENCE CORPORATION Impressed voltage device: SJ-G036, KEYENCE CORPORATION Data logger: AD-DIO Card Bus, Interface Corporation

For series [3], the system named is Candida albicans TIMM1623. In words: Mouse Candida infection model test, oral administration (Test Example 6). It counts as in vivo. The following applies: immunosuppressed mice, i.v. infection about 3×10^4 CFU/mouse; 1 mg/kg orally once daily for 4 days; observed for 14 days; 5 mice/group. The procedure: Candida albicans TIMM1623, which was obtained from overnight cultures grown on Sabouraud dextrose agar (SDA) plates at 35° C., was suspended in sterile physiological saline, then diluted to prepare a suspension of inoculum organism.
Transient immunosuppression in mice (four-week-old, 5 mice/group) was induced by intraperitoneal treatment with 200 mg/kg cyclophosphamide 4 days before the infection and with 100 mg/kg cyclophosphamide 1 day after the infection. Infection was induced by the intravenous inoculation of 0.2 mL of the cell suspension of Candida albicans TIMM1623 (about 3×10^4 CFU/mouse) via the lateral tail vein. The test compound was dissolved in 0.1 mol/L hydrochloric acid, diluted by sterilized water and orally administered at 1 mg/kg of mouse body weight. The therapy was started at 2 hours after infection and carried out once daily for 4 days. The equivalent amount of sterilized physiological saline was administered to the group to which no test compound was administered. The survival number of mice was observed and recorded for 14 days.

Series [4] can be described thus: Adhesion test to a metal cup (Test Example 4). It counts as physicochemical. The conditions noted are these: 5 g test material in SUS304 metal cup, weight adhering after turning over the cup. The procedure:
5 g of the test materials passed through a sieve (18 mesh) are filled in a metal cup (SUS304, the internal diameter: 65 mm, the volume: about 200 mL), and then the test materials were removed by turning over the cup. The weight of the test materials adhering on the surface of the cup was measured.

Series [5] can be described thus: Sticking test, scraper pressure of tablets (Test Example 3). Format: physicochemical. The following applies: tablets containing 200 mg, diameter 8.5 mm, loading pressure 10 kN. On the procedure:
Tablets (flat-shaped, the diameter 8.5 mm) containing 200 mg of the test materials were prepared by using a tableting process analyzer (Tab Flex TAB-10, OKADA SEIKO CO., LTD.) (the loading pressure: 10 kN). Next, the scraper pressure was measured when the tablets were pushed out by a scraper.

Series [6] can be described thus: Compression moldability test, tablet hardness (Test Example 5). The following applies: 200 mg tablets. It counts as physicochemical. The procedure: Tablets (flat-shaped, the diameter: 8.5 mm) containing 200 mg of the test materials were prepared by using a tableting process analyzer (Tab Flex TAB-10, OKADA SEIKO CO., LTD.) (The loading pressure: 5 and 10 kN). Next, the breaking strength of the tablets was measured by a tablet hardness tester (PC-30, OKADA SEIKO CO., LTD.).

On to `CCCCOC(=O)N=C(N)c1ccc(OCCCC2CCN(CCCOc3ccc(C(N)=NC(=O)OCCCC)cc3)CC2)cc1` [Type IV crystal, 4-{3-[4-(3-{4-[amino(butoxycarbonylimino)methyl]phenoxy}propyl)-1-piperidinyl]propoxy}-N′-(butoxycarbonyl)benzamidine], for which the Tapped density in series [1] amounted to 0.47 g/mL. In series [2], this compound returned a Surface potential of −1.3 kV. In series [3], this compound showed a mice survived of 80%. In series [4], this compound gave an Adhering amount of 40 mg. In series [5], the Scraper pressure is 2.9 kN.

For `CCCCOC(=O)N=C(N)c1ccc(OCCCC2CCN(CCCOc3ccc(C(N)=NC(=O)OCCCC)cc3)CC2)cc1` [Type III crystal, 4-{3-[4-(3-{4-[amino(butoxycarbonylimino)methyl]phenoxy}propyl)-1-piperidinyl]propoxy}-N′-(butoxycarbonyl)benzamidine], in series [1], the Tapped density turned out to be 0.45 g/mL. Further, in series [2], the Surface potential was −1.9 kV. For the same compound, the mice survived in series [3] is listed as 80%. In addition, the values for the Hardness in series [6] (Loading pressure 5 kN) and in series [6] (Loading pressure 10 kN) were 66 N and 95 N, respectively. Further, the Adhering amount in series [4] is reported as 22 mg. In series [5], this compound had a Scraper pressure of 1.9 kN.

On to `CCCCOC(=O)N=C(N)c1ccc(OCCCC2CCN(CCCOc3ccc(C(N)=NC(=O)OCCCC)cc3)CC2)cc1` [Type I crystal, 4-{3-[4-(3-{4-[amino(butoxycarbonylimino)methyl]phenoxy}propyl)-1-piperidinyl]propoxy}-N′-(butoxycarbonyl)benzamidine], for which, in series [1], the Tapped density is 0.22 g/mL. Besides, in series [2], the Surface potential is −2.3 kV. This compound registered a mice survived in series [3] of 80%. The Hardness in series [6] (Loading pressure 5 kN) stood at 56 N; in series [6] (Loading pressure 10 kN) it was 57 N. Further, the Adhering amount in series [4] turned out to be 70 mg. The Scraper pressure in series [5] amounted to 7.2 kN.

Take `CCCCOC(=O)N=C(N)c1ccc(OCCCC2CCN(CCCOc3ccc(C(N)=NC(=O)OCCCC)cc3)CC2)cc1` [Type II crystal, 4-{3-[4-(3-{4-[amino(butoxycarbonylimino)methyl]phenoxy}propyl)-1-piperidinyl]propoxy}-N′-(butoxycarbonyl)benzamidine]: the Tapped density in series [1] is 0.40 g/mL. This compound yielded a mice survived in series [3] of 80%. The Hardness is 63 N in series [6] (Loading pressure 5 kN) and 94 N in series [6] (Loading pressure 10 kN). Also, the Adhering amount in series [4] was found to be 17 mg. In series [5], this compound registered a Scraper pressure of 2.9 kN.
